This is an account of results in patent US20250230138A1, “COMPOUNDS HAVING A T-STRUCTURE FORMED BY AT LEAST FOUR CYCLES FOR USE IN THE TREATMENT OF CANCER AND OTHER INDICATIONS” (TheRas, Inc., priority 2022, published 2025).

Where two headings read alike, the source gives them in different places.

The target in experiment [1] is Cys242 in human PIK3CA (157-299) (Homo sapiens (Human), UniProt P42336). Put plainly: Covalent modification assay using MALDI-TOF MS. Type of experiment: biochemical. To be noted: 4 h reaction time point. The essentials:
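Covalent adduct formation was read by linear-mode MALDI-TOF with sinapinic acid matrix, reported as modified-protein peak height divided by total protein peak heights. Reactions held PIK3CA (157-299) at 1 or 3.33 μM in HEPES/NaCl/MgCl2 buffer, pH 7.3, sampled after 15 min to 4 h at room temperature.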

In a further experiment the test system is pAKT in BT474 cells. Put plainly: Cell-based pAKT HTRF assay in BT474 cells. The conditions noted are these: BT474 cells, 4 hr incubation, read-out: pAKT inhibition IC50 in BT474 cells. In outline: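 Treatment lasts 4 hr in DMEM/10% FBS at 0.25% DMSO over nine 3-fold dilutions from 3 μM. The lysate is then probed by HTRF.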
Where [2] appears, read: 3.33 μM protein target, 1:7.5 protein to compound ratio (compounds 1-852).
Where [3] appears, read: Homo sapiens, BT-474, Compounds 10-999.
[4] abbreviates: 1 μM protein target, 1:5 protein to compound ratio (compounds 853-1279).

Sequence of Cys242 in human PIK3CA (157-299) (P42336 157-299): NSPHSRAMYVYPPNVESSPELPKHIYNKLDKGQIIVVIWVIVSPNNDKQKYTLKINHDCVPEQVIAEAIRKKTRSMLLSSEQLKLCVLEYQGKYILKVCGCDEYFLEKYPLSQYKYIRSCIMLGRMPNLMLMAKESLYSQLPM

As a reminder, the IC50 is the point on the concentration scale where inhibition reaches its midpoint. For the molecule `C=CC(=O)N1CCc2ncc(-c3nc(-c4cnn(C)c4)c4ccsc4c3-c3c(F)cc(F)cc3OC(C)C)cc2C1` [Compound 324], the “% of modification” value in experiment [1] (setting [2]) is on record as “A (percent of modification of PIK3CA protein ≥75%)”. In the experiment with pAKT in BT474 cells (Compounds 10-999), the IC50 was less than 100 nM.
Turning to `C=CC(=O)N1CCn2nc(-c3nc(-c4ccc5c(c4)C(=O)NC5)c4ccsc4c3-c3c(F)cc(F)cc3OCCO)cc2[C@H]1C` [Compound 852, 6-((S)-6-((R)-5-acryloyl-4-methyl-4,5,6,7-tetrahydropyrazolo[1,5-a]pyrazin-2-yl)-7-(2,4-difluoro-6-(2-hydroxyethoxy)phenyl)thieno[3,2-c]pyridin-4-yl)isoindolin-1-one], the “% of modification” value in experiment [1] (setting [2]) is listed as “A (percent of modification of PIK3CA protein ≥75%)”. In addition, the IC50 in the experiment with pAKT in BT474 cells (setting [3]) is less than 100 nM.
As for `C=CC(=O)N1CCn2nc(-c3nc(-c4ccc5c(c4)CN(C)C5=O)c4ccsc4c3-c3c(F)cc(F)cc3OCCOC)cc2[C@H]1C` [Compound 539], the “% of modification” value in experiment [1] (setting [2]) was “A (percent of modification of PIK3CA protein ≥75%)”. Also, the IC50 in the experiment with pAKT in BT474 cells (Compounds 10-999) was less than 100 nM.
Turning to `C=CC(=O)N1Cc2cc(-c3nc(-c4ccc5c(c4)CCN(C)C5)c4ccsc4c3-c3c(F)cc(F)cc3OC(CF)CF)nn2C[C@H]1C` [Compound 634, 1-[(6R)-2-[7-[2,4-difluoro-6-[2-fluoro-1-(fluoromethyl)ethoxy]phenyl]-4-(2-methyl-3,4-dihydro-1H-isoquinolin-6-yl)thieno[3,2-c]pyridin-6-yl]-6-methyl-6,7-dihydro-4H-pyrazolo[1,5-a]pyrazin-5-yl]prop-2-en-1-one], the “% of modification” value in experiment [1] (setting [2]) is “A (percent of modification of PIK3CA protein ≥75%)”. Further, the IC50 in the experiment with pAKT in BT474 cells (setting [3]) is less than 100 nM.
For `C=CC(=O)N1C[C@H](C)n2nc(-c3nc(-c4ccc5ncn(C)c5c4)c4ccsc4c3-c3c(F)cc(F)cc3OCCOC)cc2[C@@H]1C` [Compound 602], the “% of modification” value in experiment [1] (setting [2]) was “A (percent of modification of PIK3CA protein ≥75%)”. Moreover, the IC50 in the experiment on pAKT in BT474 cells (Compounds 10-999) was less than 100 nM.
Consider `C=CC(=O)N1CCn2nc(-c3nc(-c4ccc5c(c4)CCNC5=O)c4ccsc4c3-c3ccc(F)cc3OC(C)C)cc2C1` [Compound 199, 6-[7-(4-fluoro-2-isopropoxy-phenyl)-6-(5-prop-2-enoyl-6,7-dihydro-4H-pyrazolo[1,5-a]pyrazin-2-yl)thieno[3,2-c]pyridin-4-yl]-3,4-dihydro-2H-isoquinolin-1-one], for which the “% of modification” value in experiment [1] (setting [2]) is recorded as “A (percent of modification of PIK3CA protein ≥75%)”. Also, the IC50 in the experiment with pAKT in BT474 cells (setting [3]) was less than 100 nM.
As for `C=CC(=O)N1Cc2cc(-c3nc(-c4ccc5c(c4)C(=O)NC5)c4ccsc4c3-c3c(F)cc(F)cc3OCCOC)nn2CC1C` (stereo not drawn) [Compound 768], in experiment [1] (setting [2]), the “% of modification” value was “A (percent of modification of PIK3CA protein ≥75%)”. In addition, the IC50 with pAKT in BT474 cells (Compounds 10-999) is less than 100 nM.
With `C=CC(=O)N1Cc2cc(-c3nc(-c4cnn(C)c4)c4ccsc4c3-c3c(F)cc(F)cc3OCCO)nn2[C@@H](C)C1` [Compound 519], the “% of modification” value in experiment [1] (setting [2]) is reported as “A (percent of modification of PIK3CA protein ≥75%)”. In addition, the IC50 in the experiment on pAKT in BT474 cells (Compounds 10-999) was less than 100 nM.
As for `C=CC(=O)N1CCC(n2cc(-c3nc(-c4ccc5c(c4)CS(=N)(=O)C5)c4ccsc4c3-c3ccc(F)cc3OCCOC)cn2)CC1` (stereo not drawn) [Compound 94], the “% of modification” value in experiment [1] (setting [2]) is recorded as “A (percent of modification of PIK3CA protein ≥75%)”. The IC50 in the experiment on pAKT in BT474 cells (Compounds 10-999) was less than 100 nM.
In the same order, the values of `C=CC(=O)N1CCc2ccc(-c3nc(-c4cnc5c(c4)CNC(=O)C5)c4ccsc4c3-c3c(F)cc(F)cc3OC(C)C)cc2C1` [Compound 499] are “A (percent of modification of PIK3CA protein ≥75%)” and less than 100 nM.
With `C=CC(=O)N1CCn2nc(-c3nc(-c4ccc5c(c4)CCNC5=O)c4ccsc4c3-c3ccc(F)cc3OCCOC)cc2C1` [Compound 189, 6-[7-[4-fluoro-2-(2-methoxyethoxy)phenyl]-6-(5-prop-2-enoyl-6,7-dihydro-4H-pyrazolo[1,5-a]pyrazin-2-yl)thieno[3,2-c]pyridin-4-yl]-3,4-dihydro-2H-isoquinolin-1-one], the “% of modification” value in experiment [1] (setting [2]) is given as “A (percent of modification of PIK3CA protein ≥75%)”. The IC50 in the experiment with pAKT in BT474 cells (setting [3]) is less than 100 nM.
With `C=CC(=O)N1CCn2nc(-c3nc(-c4ccc5cnn(C)c(=O)c5c4)c4ccsc4c3-c3c(F)cc(F)cc3OCCOC)cc2[C@@H]1C` [Compound 898], the “% of modification” value in experiment [1] (setting [4]) is “A (percent of modification of PIK3CA protein ≥75%)”. The IC50 with pAKT in BT474 cells (Compounds 10-999) was less than 100 nM.
Consider `C=CC(=O)N1CC(n2cc(-c3nc(-c4ccc5c(c4)CCNC5)c4c(c3-c3ccc(F)cc3OC)CCC4)cn2)C1` [Compound 97, 1-[3-[4-[4-(4-fluoro-2-methoxy-phenyl)-1-(1,2,3,4-tetrahydroisoquinolin-6-yl)-6,7-dihydro-5H-cyclopenta[c]pyridin-3-yl]pyrazol-1-yl]azetidin-1-yl]prop-2-en-1-one], for which the “% of modification” value in experiment [1] (setting [2]) is reported as “A (percent of modification of PIK3CA protein ≥75%)”. Besides, the IC50 with pAKT in BT474 cells (setting [3]) was 100 to 1000 nM.
For the molecule `C=CC(=O)N1CCn2nc(-c3nc(-c4ccc5nn(C)cc5c4)c4ccsc4c3-c3c(F)cc(F)cc3OC[C@@H](C)O)cc2[C@H]1C` [Compound 760], the “% of modification” value in experiment [1] (setting [2]) is listed as “A (percent of modification of PIK3CA protein ≥75%)”. In addition, the IC50 with pAKT in BT474 cells (Compounds 10-999) is less than 100 nM.
Consider `C=CC(=O)N1CC(n2cc(-c3nc(-c4ccc5c(c4)CCNC5)c4ccnn4c3-c3ccc(F)cc3OC)cn2)C1` [Compound 169, 1-[3-[4-[7-(4-fluoro-2-methoxy-phenyl)-4-(1,2,3,4-tetrahydroisoquinolin-6-yl)pyrazolo[1,5-a]pyrazin-6-yl]pyrazol-1-yl]azetidin-1-yl]prop-2-en-1-one], for which the “% of modification” value in experiment [1] (setting [2]) is listed as “B (50%<percent of modification <75%)”. Also, the IC50 in the experiment with pAKT in BT474 cells (setting [3]) is 100 to 1000 nM.
As for `C=CC(=O)N1Cc2cc(-c3nc(-c4cnn(CC(C)(C)O)c4)c4ccsc4c3-c3c(F)cc(F)cc3OC(C)C)nn2[C@@H](C)C1` [Compound 493], the “% of modification” value in experiment [1] (setting [2]) is reported as “A (percent of modification of PIK3CA protein ≥75%)”. In the experiment with pAKT in BT474 cells (Compounds 10-999), the IC50 was less than 100 nM.
For the molecule `C=CC(=O)N1CCn2nc(-c3nc(-c4cnc5c(cnn5C)c4)c4ccsc4c3-c3c(F)cc(F)cc3OC[C@@H](C)O)cc2[C@H]1C` [Compound 893], the “% of modification” value in experiment [1] (setting [4]) is “A (percent of modification of PIK3CA protein ≥75%)”. Moreover, in the experiment on pAKT in BT474 cells (Compounds 10-999), the IC50 was less than 100 nM.
For `C=CC(=O)N1CCC(c2cc(-c3nc(-c4ccc5c(c4)CCNC5)c4ccsc4c3-c3ccc(F)cc3OCCOC)c[nH]c2=O)C1` (stereo not drawn) [Compound 70, 5-[7-[4-fluoro-2-(2-methoxyethoxy)phenyl]-4-(1,2,3,4-tetrahydroisoquinolin-6-yl)thieno[3,2-c]pyridin-6-yl]-3-(1-prop-2-enoylpyrrolidin-3-yl)-1H-pyridin-2-one], the “% of modification” value in experiment [1] (setting [2]) is reported as “A (percent of modification of PIK3CA protein ≥75%)”. For the same molecule, the IC50 with pAKT in BT474 cells (setting [3]) fell in the range of 100 to 1000 nM.
As to `C=CC(=O)N1CCn2nc(-c3nc(-c4ccc5c(c4)[nH]c(=O)n5C)c4ccsc4c3-c3c(F)cc(F)cc3OCCOC)cc2C1C` (stereo not drawn) [Compound 1092], the “% of modification” value in experiment [1] (setting [4]) is “A (percent of modification of PIK3CA protein ≥75%)”. Further, the IC50 in the experiment with pAKT in BT474 cells (Compounds 1000-1279) is less than 100 nM.
With `C=CC(=O)N1Cc2cc(-c3nc(-c4ccc5cnn(C)c5c4)c4ccsc4c3-c3c(F)cc(F)cc3OC[C@@H](C)O)nn2C[C@H]1C` [Compound 755], in experiment [1] (setting [2]), the “% of modification” value was “A (percent of modification of PIK3CA protein ≥75%)”. For the same molecule, the IC50 in the experiment with pAKT in BT474 cells (Compounds 10-999) is less than 100 nM.
Turning to `C=CC(=O)N1Cc2cc(-c3nc(-c4cnc5oc(C)nc5c4)c4ccsc4c3-c3c(F)cc(F)cc3OCCOC)nn2C[C@H]1C` [Compound 825], in experiment [1] (setting [2]), the “% of modification” value is recorded as “A (percent of modification of PIK3CA protein ≥75%)”. The IC50 in the experiment on pAKT in BT474 cells (Compounds 10-999) is less than 100 nM.
In the same order, the values of `C=CC(=O)N1Cc2cc(-c3nc(-c4cnn(C5CCC5)c4)c4ccsc4c3-c3c(F)cc(F)cc3OCCOC)nn2C[C@H]1C` [Compound 723] are “A (percent of modification of PIK3CA protein ≥75%)” and less than 100 nM.
Regarding `C=CC(=O)N1CCn2nc(-c3nc(-c4cnc5c(c4)CN(CCCF)CC5)c4ccsc4c3-c3c(F)cc(F)cc3OCCOC)cc2C1C` (stereo not drawn) [Compound 1158], in experiment [1] (setting [4]), the “% of modification” value was “A (percent of modification of PIK3CA protein ≥75%)”. Further, the IC50 in the experiment with pAKT in BT474 cells (Compounds 1000-1279) is less than 100 nM.
For `C=CC(=O)N1CCn2nc(-c3nc(-c4cn(C)cn4)c4ccsc4c3-c3c(F)cc(F)cc3OC[C@@H](C)O)cc2[C@H]1C` [Compound 744], the “% of modification” value in experiment [1] (setting [2]) is recorded as “A (percent of modification of PIK3CA protein ≥75%)”. In addition, the IC50 in the experiment on pAKT in BT474 cells (Compounds 10-999) was less than 100 nM.
In the same order, the values of `C=CC(=O)N1CC[C@H](n2cc(-c3nc(-c4cnn(C)c4)c4ccsc4c3-c3c(F)cc(F)cc3OCCOC)cn2)C1` [Compound 368] are “A (percent of modification of PIK3CA protein ≥75%)” and 100 to 1000 nM.
Regarding `C=CC(=O)N1Cc2cc(-c3nc(-c4cnn(C)c(=O)c4)c4ccsc4c3-c3c(F)cc(F)cc3OCCOC)nn2C[C@H]1C` [Compound 793], in experiment [1] (setting [2]), the “% of modification” value is on record as “A (percent of modification of PIK3CA protein ≥75%)”. For the same molecule, the IC50 in the experiment with pAKT in BT474 cells (Compounds 10-999) is less than 100 nM.
With `C=CC(=O)N1CCc2ccc(-c3nc(-c4ccc5c(c4)CNC(=O)C5)c4ccsc4c3-c3c(F)cc(F)cc3OCCOC)cc2C1` [Compound 1108], the “% of modification” value in experiment [1] (setting [4]) is on record as “A (percent of modification of PIK3CA protein ≥75%)”. Further, the IC50 in the experiment with pAKT in BT474 cells (Compounds 1000-1279) is less than 100 nM.
